Data on 24 molecules can be found in patent US20200255415A1, “TETRASUBSTITUTED ALKENE COMPOUNDS AND THEIR USE FOR THE TREATMENT OF BREAST CANCER” (Eisai R&D Management Co., Ltd., priority 2016, published 2020).

T1 sequence (P08684 whole entry): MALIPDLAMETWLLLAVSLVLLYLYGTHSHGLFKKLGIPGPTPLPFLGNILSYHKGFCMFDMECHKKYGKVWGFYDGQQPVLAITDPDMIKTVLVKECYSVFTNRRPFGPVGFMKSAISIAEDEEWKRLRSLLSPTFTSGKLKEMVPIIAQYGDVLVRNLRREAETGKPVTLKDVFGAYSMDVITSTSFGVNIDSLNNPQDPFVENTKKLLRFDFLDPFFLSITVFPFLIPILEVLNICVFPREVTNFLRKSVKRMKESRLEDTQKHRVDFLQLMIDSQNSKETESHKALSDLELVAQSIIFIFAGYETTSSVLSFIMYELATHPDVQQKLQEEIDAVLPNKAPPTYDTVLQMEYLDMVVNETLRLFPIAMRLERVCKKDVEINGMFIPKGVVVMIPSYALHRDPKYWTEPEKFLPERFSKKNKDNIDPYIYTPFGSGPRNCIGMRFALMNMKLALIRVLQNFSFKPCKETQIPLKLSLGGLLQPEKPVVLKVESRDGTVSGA

This data set concerns the target T1, human CYP3A4 (Homo sapiens, UniProt P08684).
T1 construct: human CYP3A4 using liver microsomes (0.1 mg/mL); from tissue; host or cells: liver microsomes
In words: Time-dependent inhibition assay (IC50 shift), liver microsomes. It counts as in vitro ADME. To be noted: IC50 shift; human liver microsomes, 30 min pre-incubation, midazolam probe. How it is done:
One of these approaches uses multiple test compound concentrations at a single incubation time, e.g. the “IC50 shift” approach. In an IC50 shift experiment, the IC50 is determined for a CYP marker activity before and after the test compound has been incubated with enzyme and the co-factor nicotinamide adenine dinucleotide phosphate (NADPH) for a set preincubation time (Grimm et al, 2009).
The IC50 shift approach was used to determine whether compounds are time-dependent inhibitors of human CYP3A4 using liver microsomes (0.1 mg/mL). A 30-minute pre-incubation time point was selected, where compounds (9 concentrations, 0 to 30 μmol/L) are incubated at 37° C. in presence and absence of 1 mmol/L NADPH. Following the pre-incubation period, 5 μmol/L midazolam (the probe substrate) was added and formation of hydroxymidazolam was measured by high-performance liquid chromatography-mass spectrometry (LC-MS/MS) analysis following a 5 minute incubation period. Any decrease in the formation of hydroxymidazolam, in peak area ratios to vehicle control, was used to calculate three IC50 values (0 min pre-incubation, 30 min pre-incubation with NADPH, and 30 min pre-incubation without NADPH). […] Assays were performed in duplicate, and mifepristone was used as positive control. In Table 3, “Yes” indicates a TDI shift greater than or equal to 3. “No” indicates a TDI shift greater than or equal to 1 and less than 3.
The IC50 shift approach was also used to determine whether Compound 69 of PCT International Application Publication No. WO/2016/196346 is a time-dependent inhibitor of human CYP3A4 using liver microsomes. Similar to the experimental design described above, a 30-minute pre-incubation time point was selected. Minor variations to the method described above were that Compound 69 of PCT International Application Publication No. WO/2016/196346 was tested at 8 concentrations (0 to 10 μmol/L). Following the pre-incubation period, 3 μmol/L midazolam was added and formation of hydroxymidazolam was measured following a 2 minute incubation period. Since under these experimental conditions, the formation of hydroxymidazolam followed first order kinetics (considered as a linear process), these changes in assay design are not expected to impact the IC50 determinations. In parallel, the IC50 shift assay was also performed with 15.6 μmol/L testosterone (0.05 mg/mL liver microsomes, 10 minute incubation) as second probe substrate. Assays for both probe substrates were performed in triplicate, and mifepristone was used as positive control.
A general note: Liver microsomes are vesicles of endoplasmic reticulum, rich in cytochrome P450 enzymes.
As for `CN(C)C(=O)CCCNCCOc1ccc(/C(=C(/CC(F)(F)F)c2ccccc2)c2ccc3[nH]nc(F)c3c2)cn1` [Compound 2, (Z)-N,N-dimethyl-4-((2-((5-(4,4,4-trifluoro-1-(3-fluoro-1H-indazol-5-yl)-2-phenylbut-1-en-1-yl)pyridin-2-yl)oxy)ethyl)amino)butanamide], the “CYP3A4 TDI” value is “Yes (“Yes” indicates a TDI shift greater than or equal to 3)”.

On to `O=C(/C=C/CNCCOc1ccc(/C(=C(/CC(F)(F)F)c2ccccc2)c2ccc3[nH]nc(F)c3c2)cn1)NCCO` [Compound 7, (E)-N-(2-hydroxyethyl)-4-((2-((5-((Z)-4,4,4-trifluoro-1-(3-fluoro-1H-indazol-5-yl)-2-phenylbut-1-en-1-yl)pyridin-2-yl)oxy)ethyl)amino)but-2-enamide], for which the “CYP3A4 TDI” value was “No (“No” indicates a TDI shift greater than or equal to 1 and less than 3)”.

Take `CNC(=O)/C=C/CNCCOc1ccc(/C(=C(/CC(F)(F)F)c2ccccc2)c2ccc3[nH]ncc3c2)cn1` [Compound 9, (E)-N-methyl-4-((2-((5-((Z)-4,4,4-trifluoro-1-(1H-indazol-5-yl)-2-phenylbut-1-en-1-yl)pyridin-2-yl)oxy)ethyl)amino)but-2-enamide]: the “CYP3A4 TDI” value is on record as “Yes (“Yes” indicates a TDI shift greater than or equal to 3)”.

On to `CNC(=O)/C=C/CNCCOc1ccc(/C(=C(/CC(F)(F)F)c2ccccc2)c2ccc3[nH]ncc3c2)cc1` [Compound 10, (E)-N-methyl-4-((2-(4-((E)-4,4,4-trifluoro-1-(1H-indazol-5-yl)-2-phenylbut-1-en-1-yl)phenoxy)ethyl)amino)but-2-enamide], for which the “CYP3A4 TDI” value is given as “Yes (“Yes” indicates a TDI shift greater than or equal to 3)”.

In the case of `Cl.O=C(/C=C/CNCCOc1ccc(/C(=C(/CC(F)(F)F)c2ccccc2)c2ccc3[nH]nc(F)c3c2)cc1)N1CCCC1` [Compound 13, (E)-1-(pyrrolidin-1-yl)-4-((2-(4-((E)-4,4,4-trifluoro-1-(3-fluoro-1H-indazol-5-yl)-2-phenylbut-1-en-1-yl)phenoxy)ethyl)amino)but-2-en-1-one], the “CYP3A4 TDI” value was “No (“No” indicates a TDI shift greater than or equal to 1 and less than 3)”.

Take `Cl.O=C(/C=C/CNCCOc1ccc(/C(=C(/CC(F)(F)F)c2ccccc2)c2ccc3[nH]nc(F)c3c2)cn1)N1CCCC1` [Compound 15]: the “CYP3A4 TDI” value was “No (“No” indicates a TDI shift greater than or equal to 1 and less than 3)”.

As to `Cl.O=C(/C=C/CNCCOc1ccc(/C(=C(/CC(F)(F)F)c2ccccc2)c2ccc3[nH]ncc3c2)cn1)N1CCCC1` [Compound 16, (E)-1-(pyrrolidin-1-yl)-4-((2-((5-((Z)-4,4,4-trifluoro-1-(1H-indazol-5-yl)-2-phenylbut-1-en-1-yl)pyridin-2-yl)oxy)ethyl)amino)but-2-en-1-one], the “CYP3A4 TDI” value was “Yes (“Yes” indicates a TDI shift greater than or equal to 3)”.

On to `Cl.O=C(/C=C/CNCCOc1ccc(/C(=C(/CC(F)(F)F)c2ccccc2)c2ccc3[nH]nc(F)c3c2)cc1)N1CCOCC1` [Compound 17], for which the “CYP3A4 TDI” value was “No (“No” indicates a TDI shift greater than or equal to 1 and less than 3)”.

In the case of `Cl.[2H]C([2H])([2H])N(C(=O)/C=C/CNCCOc1ccc(/C(=C(/CC(F)(F)F)c2ccccc2)c2ccc3[nH]ncc3c2)cc1)C([2H])([2H])[2H]` [Compound 23], the “CYP3A4 TDI” value is on record as “Yes (“Yes” indicates a TDI shift greater than or equal to 3)”.

As to `CC/C(=C(/c1ccc(OCCNC/C=C/C(=O)NC)cc1)c1ccc2[nH]nc(F)c2c1)c1ccccc1.Cl` [Compound 26, (E)-4-((2-(4-((E)-1-(3-fluoro-1H-indazol-5-yl)-2-phenylbut-1-en-1-yl)phenoxy)ethyl)amino)-N-methylbut-2-enamide], the “CYP3A4 TDI” value was “No (“No” indicates a TDI shift greater than or equal to 1 and less than 3)”.

In the case of `CC/C(=C(/c1ccc(OCCNC/C=C/C(=O)NC)nc1)c1ccc2[nH]nc(F)c2c1)c1ccccc1.Cl` [Compound 27, (E)-4-((2-((5-((Z)-1-(3-fluoro-1H-indazol-5-yl)-2-phenylbut-1-en-1-yl)pyridin-2-yl)oxy)ethyl)amino)-N-methylbut-2-enamide], the “CYP3A4 TDI” value was “Yes (“Yes” indicates a TDI shift greater than or equal to 3)”.

For `CC/C(=C(/c1ccc(OCCNC/C=C/C(=O)N2CCCC2)cc1)c1ccc2[nH]nc(F)c2c1)c1ccccc1.Cl` [Compound 29, (E)-4-((2-(4-((E)-1-(3-fluoro-1H-indazol-5-yl)-2-phenylbut-1-en-1-yl)phenoxy)ethyl)amino)-1-(pyrrolidin-1-yl)but-2-en-1-one], the “CYP3A4 TDI” value was “No (“No” indicates a TDI shift greater than or equal to 1 and less than 3)”.

For `CC/C(=C(/c1ccc(OCCNC/C=C/C(=O)N2CCCC2)nc1)c1ccc2[nH]nc(F)c2c1)c1ccccc1.Cl` [Compound 30], the “CYP3A4 TDI” value was “No (“No” indicates a TDI shift greater than or equal to 1 and less than 3)”.

As for `CNC(=O)/C=C/CNCCOc1ccc(/C(=C(\c2ccccc2)C2CCC2)c2ccc3[nH]nc(F)c3c2)cc1.Cl` [Compound 31, (E)-4-((2-(4-((E)-2-cyclobutyl-1-(3-fluoro-1H-indazol-5-yl)-2-phenylvinyl)phenoxy)ethyl)amino)-N-methylbut-2-enamide], the “CYP3A4 TDI” value was “Yes (“Yes” indicates a TDI shift greater than or equal to 3)”.

For `CNC(=O)/C=C/CNCCOc1ccc(/C(=C(\c2ccccc2)C2CCC2)c2ccc3[nH]nc(F)c3c2)cn1.Cl` [Compound 32], the “CYP3A4 TDI” value was “Yes (“Yes” indicates a TDI shift greater than or equal to 3)”.

Consider `CNC(=O)/C=C/CNCCOc1ccc(/C(=C(\c2ccccc2)C2CCC2)c2ccc3[nH]ncc3c2)cn1.Cl` [Compound 33, (E)-4-((2-((5-((Z)-2-cyclobutyl-1-(1H-indazol-5-yl)-2-phenylvinyl)pyridin-2-yl)oxy)ethyl)amino)-N-methylbut-2-enamide], for which the “CYP3A4 TDI” value is “Yes (“Yes” indicates a TDI shift greater than or equal to 3)”.

Take `O=C(/C=C/CNCCOc1ccc(/C(=C(\c2ccccc2)C2CCC2)c2ccc3[nH]nc(F)c3c2)cc1)N1CCCC1` [Compound 34]: the “CYP3A4 TDI” value is “Yes (“Yes” indicates a TDI shift greater than or equal to 3)”.

In the case of `Cl.O=C(/C=C/CNCCOc1ccc(/C(=C(\c2ccccc2)C2CCC2)c2ccc3[nH]nc(F)c3c2)cn1)N1CCCC1` [Compound 36, (E)-4-((2-((5-((Z)-2-cyclobutyl-1-(3-fluoro-1H-indazol-5-yl)-2-phenylvinyl)pyridin-2-yl)oxy)ethyl)amino)-1-(pyrrolidin-1-yl)but-2-en-1-one], the “CYP3A4 TDI” value is on record as “Yes (“Yes” indicates a TDI shift greater than or equal to 3)”.

As to `O=C(/C=C/CNCCOc1ccc(/C(=C(\c2ccccc2)C2CCC2)c2ccc3[nH]ncc3c2)cn1)N1CCCC1` [Compound 37], the “CYP3A4 TDI” value is “Yes (“Yes” indicates a TDI shift greater than or equal to 3)”.

Take `CNC(=O)CCCNCCOc1ccc(/C(=C(/CC(F)(F)F)c2ccccc2)c2ccc3[nH]ncc3c2)cc1.Cl` [Compound 38, (E)-N-methyl-4-((2-(4-(4,4,4-trifluoro-1-(1H-indazol-5-yl)-2-phenylbut-1-en-1-yl)phenoxy)ethyl)amino)butanamide]: the “CYP3A4 TDI” value is recorded as “Yes (“Yes” indicates a TDI shift greater than or equal to 3)”.

Consider `CNC(=O)CCCNCCOc1ccc(/C(=C(/CC(F)(F)F)c2ccccc2)c2ccc3[nH]nc(F)c3c2)cc1.Cl` [Compound 39, (E)-N-methyl-4-((2-(4-(4,4,4-trifluoro-1-(3-fluoro-1H-Indazol-5-yl)-2-phenylbut-1-en-1-yl)phenoxy)ethyl)amino)butanamide], for which the “CYP3A4 TDI” value is “No (“No” indicates a TDI shift greater than or equal to 1 and less than 3)”.

For the molecule `CNC(=O)CCCNCCOc1ccc(/C(=C(/CC(F)(F)F)c2ccccc2)c2ccc3[nH]ncc3c2)cn1.Cl` [Compound 40, (Z)—N-methyl-4-((2-((5-(4,4,4-trifluoro-1-(1H-indazol-5-yl)-2-phenylbut-1-en-1-yl)pyridin-2-yl)oxy)ethyl)amino)butanamide], the “CYP3A4 TDI” value was “Yes (“Yes” indicates a TDI shift greater than or equal to 3)”.

In the case of `CNC(=O)/C=C/CNCCOc1ccc(/C(=C(/CC(F)(F)F)c2ccccc2)c2ccc3[nH]nc(F)c3c2)c(C)n1.Cl` [Compound 44], the “CYP3A4 TDI” value is “Yes (“Yes” indicates a TDI shift greater than or equal to 3)”.

With `O=C(/C=C/CNCCOc1ccc(/C(=C(/CC(F)(F)F)c2ccccc2)c2ccc3[nH]nc(F)c3c2)cn1)N1CCCCC1` [Compound 55], the “CYP3A4 TDI” value was “Yes (“Yes” indicates a TDI shift greater than or equal to 3)”.
